From US20130303509A1, “NAMPT INHIBITORS” (AbbVie Inc., priority 2012, published 2013)

These compounds were tested on PC3 cells (assay: NAMPT Cell Proliferation Assay). Conditions: Homo sapiens, PC-3, 120 h, 5 days incubation, cell viability by Cell Titer Glo.
Type: cell-based
Summary of the method: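 Seeded at 500 cells/well in RPMI with 10% heat-inactivated FBS and left to attach overnight at 37° C, 5% CO2. Compounds were added as 10-fold dilutions […] for 5 days, then viability was read by CellTiter-Glo. IC50s came from sigmoidal fits of percent inhibition.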

SMILES	IC50 [µM]
O=C(Nc1ccc(C2CCN(C(=O)c3ccco3)CC2)cc1)C1CN(c2cccnn2)C1 [Example 436, N-{4-[1-(furan-2-ylcarbonyl)piperidin-4-yl]phenyl}-1-(pyridazin-3-yl)azetidine-3-carboxamide]	0.00067
CC1(C(=O)N2CCC(c3ccc(NC(=O)C4CN(c5cccnn5)C4)cc3)CC2)CCCCC1 [Example 437, N-(4-{1-[(1-methylcyclohexyl)carbonyl]piperidin-4-yl}phenyl)-1-(pyridazin-3-yl)azetidine-3-carboxamide]	0.00098
CC(=O)C(=O)N1CCC(c2ccc(NC(=O)C3CN(c4cccnn4)C3)cc2)CC1 [Example 438, N-{4-[1-(2-oxopropanoyl)piperidin-4-yl]phenyl}-1-(pyridazin-3-yl)azetidine-3-carboxamide]	0.00196
O=C(Nc1ccc(C2CCN(C(=O)C3CCCC3)CC2)cc1)C1CN(c2cccnn2)C1 [Example 439, N-{4-[1-(cyclopentylcarbonyl)piperidin-4-yl]phenyl}-1-(pyridazin-3-yl)azetidine-3-carboxamide]	0.00336
CCC(=O)N1CCC(c2ccc(NC(=O)C3CN(c4cccnn4)C3)cc2)CC1 [Example 440, N-[4-(1-propanoylpiperidin-4-yl)phenyl]-1-(pyridazin-3-yl)azetidine-3-carboxamide]	0.0018
Cc1ccc(C(=O)N2CCC(c3ccc(NC(=O)C4CN(c5cccnn5)C4)cc3)CC2)cc1 [Example 441, N-{4-[1-(4-methylbenzoyl)piperidin-4-yl]phenyl}-1-(pyridazin-3-yl)azetidine-3-carboxamide]	0.00683
O=C(Nc1ccc(O[C@@H]2CCN(C(=O)c3ccccc3Cl)C2)cc1)C1CN(c2ccnnc2)C1 [Example 442, N-(4-{[(3R)-1-(2-chlorobenzoyl)pyrrolidin-3-yl]oxy}phenyl)-1-(pyridazin-4-yl)azetidine-3-carboxamide]	0.00625
O=C(Nc1ccc(O[C@@H]2CCN(C(=O)c3nccs3)C2)cc1)C1CN(c2ccnnc2)C1 [Example 443, 1-(pyridazin-4-yl)-N-(4-{[(3R)-1-(1,3-thiazol-2-ylcarbonyl)pyrrolidin-3-yl]oxy}phenyl)azetidine-3-carboxamide]	0.00565
O=C(Nc1ccc(O[C@@H]2CCN(C(=O)CC3CC3)C2)cc1)C1CN(c2ccnnc2)C1 [Example 444, N-(4-{[(3R)-1-(cyclopropylacetyl)pyrrolidin-3-yl]oxy}phenyl)-1-(pyridazin-4-yl)azetidine-3-carboxamide]	0.078
CC[C@H](C)C(=O)N1CC[C@@H](Oc2ccc(NC(=O)C3CN(c4ccnnc4)C3)cc2)C1 [Example 445, N-[4-({(3R)-1-[(2S)-2-methylbutanoyl]pyrrolidin-3-yl}oxy)phenyl]-1-(pyridazin-4-yl)azetidine-3-carboxamide]	0.0191
O=C(Nc1ccc(O[C@@H]2CCN(C(=O)C3CCOCC3)C2)cc1)C1CN(c2ccnnc2)C1 [Example 446, 1-(pyridazin-4-yl)-N-(4-{[(3R)-1-(tetrahydro-2H-pyran-4-ylcarbonyl)pyrrolidin-3-yl]oxy}phenyl)azetidine-3-carboxamide]	0.108
O=C(Nc1ccc(O[C@@H]2CCN(C(=O)Cc3ccc(OC(F)(F)F)cc3)C2)cc1)C1CN(c2ccnnc2)C1 [Example 447, 1-(pyridazin-4-yl)-N-(4-{[(3R)-1-{[4-(trifluoromethoxy)phenyl]acetyl}pyrrolidin-3-yl]oxy}phenyl)azetidine-3-carboxamide]	0.903
O=C(Nc1ccc(O[C@@H]2CCN(C(=O)c3ccsc3)C2)cc1)C1CN(c2ccnnc2)C1 [Example 448, 1-(pyridazin-4-yl)-N-(4-{[(3R)-1-(thiophen-3-ylcarbonyl)pyrrolidin-3-yl]oxy}phenyl)azetidine-3-carboxamide]	0.00932
O=C(Nc1ccc(O[C@@H]2CCN(C(=O)Cc3ccc(F)cc3)C2)cc1)C1CN(c2ccnnc2)C1 [Example 449, N-[4-({(3R)-1-[(4-fluorophenyl)acetyl]pyrrolidin-3-yl}oxy)phenyl]-1-(pyridazin-4-yl)azetidine-3-carboxamide]	0.678
O=C(Nc1ccc(O[C@@H]2CCN(C(=O)Cc3cc(F)cc(F)c3)C2)cc1)C1CN(c2ccnnc2)C1 [Example 450, N-[4-({(3R)-1-[(3,5-difluorophenyl)acetyl]pyrrolidin-3-yl}oxy)phenyl]-1-(pyridazin-4-yl)azetidine-3-carboxamide]	0.0509
O=C(Nc1ccc(O[C@@H]2CCN(C(=O)c3ccc(F)c(F)c3)C2)cc1)C1CN(c2ccnnc2)C1 [Example 451, N-(4-{[(3R)-1-(3,4-difluorobenzoyl)pyrrolidin-3-yl]oxy}phenyl)-1-(pyridazin-4-yl)azetidine-3-carboxamide]	0.0868
O=C(Nc1ccc(O[C@@H]2CCN(C(=O)Cc3cccc(F)c3)C2)cc1)C1CN(c2ccnnc2)C1 [Example 452, N-[4-({(3R)-1-[(3-fluorophenyl)acetyl]pyrrolidin-3-yl}oxy)phenyl]-1-(pyridazin-4-yl)azetidine-3-carboxamide]	0.0632

SMILES	IC50 [µM]
O=C(Nc1ccc(O[C@@H]2CCN(C(=O)c3cccc(C(F)(F)F)c3)C2)cc1)C1CN(c2ccnnc2)C1 [Example 453, 1-(pyridazin-4-yl)-N-[4-({(3R)-1-[3-(trifluoromethyl)benzoyl]pyrrolidin-3-yl}oxy)phenyl]azetidine-3-carboxamide]	0.105
O=C(Nc1ccc(O[C@@H]2CCN(C(=O)Cc3ccc(F)cc3F)C2)cc1)C1CN(c2ccnnc2)C1 [Example 454, N-[4-({(3R)-1-[(2,4-difluorophenyl)acetyl]pyrrolidin-3-yl}oxy)phenyl]-1-(pyridazin-4-yl)azetidine-3-carboxamide]	0.106
O=C(Nc1ccc(O[C@@H]2CCN(C(=O)Cc3ccc(C(F)(F)F)cc3)C2)cc1)C1CN(c2ccnnc2)C1 [Example 455, 1-(pyridazin-4-yl)-N-(4-{[(3R)-1-{[4-(trifluoromethyl)phenyl]acetyl}pyrrolidin-3-yl]oxy}phenyl)azetidine-3-carboxamide]	0.458
O=C(Nc1ccc(O[C@@H]2CCN(C(=O)c3cscn3)C2)cc1)C1CN(c2ccnnc2)C1 [Example 456, 1-(pyridazin-4-yl)-N-(4-{[(3R)-1-(1,3-thiazol-4-ylcarbonyl)pyrrolidin-3-yl]oxy}phenyl)azetidine-3-carboxamide]	0.0395
O=C(Nc1ccc(O[C@@H]2CCN(C(=O)C3CCCO3)C2)cc1)C1CN(c2ccnnc2)C1 (stereo partly drawn) [Example 457, 1-(pyridazin-4-yl)-N-(4-{[(3R)-1-(tetrahydrofuran-2-ylcarbonyl)pyrrolidin-3-yl]oxy}phenyl)azetidine-3-carboxamide]	0.142
Cc1ccc(C(=O)N2CC[C@@H](Oc3ccc(NC(=O)C4CN(c5ccnnc5)C4)cc3)C2)s1 [Example 458, N-[4-({(3R)-1-[(5-methylthiophen-2-yl)carbonyl]pyrrolidin-3-yl}oxy)phenyl]-1-(pyridazin-4-yl)azetidine-3-carboxamide]	0.0644
O=C(Nc1ccc(O[C@@H]2CCN(C(=O)Cc3ccccc3F)C2)cc1)C1CN(c2ccnnc2)C1 [Example 459, N-[4-({(3R)-1-[(2-fluorophenyl)acetyl]pyrrolidin-3-yl}oxy)phenyl]-1-(pyridazin-4-yl)azetidine-3-carboxamide]	0.0369
O=C(Nc1ccc(O[C@@H]2CCN(C(=O)C3CC3)C2)cc1)C1CN(c2ccnnc2)C1 [Example 460, N-(4-{[(3R)-1-(cyclopropylcarbonyl)pyrrolidin-3-yl]oxy}phenyl)-1-(pyridazin-4-yl)azetidine-3-carboxamide]	0.223
O=C(Nc1ccc(O[C@@H]2CCN(C(=O)C3CCOC3)C2)cc1)C1CN(c2ccnnc2)C1 (stereo partly drawn) [Example 461, 1-(pyridazin-4-yl)-N-(4-{[(3R)-1-(tetrahydrofuran-3-ylcarbonyl)pyrrolidin-3-yl]oxy}phenyl)azetidine-3-carboxamide]	0.646
O=C(Nc1ccc(O[C@@H]2CCN(C(=O)c3cccc(OC(F)(F)F)c3)C2)cc1)C1CN(c2ccnnc2)C1 [Example 462, 1-(pyridazin-4-yl)-N-[4-({(3R)-1-[3-(trifluoromethoxy)benzoyl]pyrrolidin-3-yl}oxy)phenyl]azetidine-3-carboxamide]	0.214
O=C(Nc1ccc(O[C@@H]2CCN(C(=O)c3ccccn3)C2)cc1)C1CN(c2ccnnc2)C1 [Example 463, 1-(pyridazin-4-yl)-N-(4-{[(3R)-1-(pyridin-2-ylcarbonyl)pyrrolidin-3-yl]oxy}phenyl)azetidine-3-carboxamide]	0.0709
O=C(Nc1ccc(O[C@@H]2CCN(C(=O)c3cccc(Cl)c3)C2)cc1)C1CN(c2ccnnc2)C1 [Example 464, N-(4-{[(3R)-1-(3-chlorobenzoyl)pyrrolidin-3-yl]oxy}phenyl)-1-(pyridazin-4-yl)azetidine-3-carboxamide]	0.0659
O=C(Nc1ccc(O[C@@H]2CCN(C(=O)c3ccc(Cl)cc3)C2)cc1)C1CN(c2ccnnc2)C1 [Example 465, N-(4-{[(3R)-1-(4-chlorobenzoyl)pyrrolidin-3-yl]oxy}phenyl)-1-(pyridazin-4-yl)azetidine-3-carboxamide]	0.616
CC(C)(C(=O)N1CC[C@@H](Oc2ccc(NC(=O)C3CN(c4ccnnc4)C3)cc2)C1)c1ccccc1 [Example 466, N-(4-{[(3R)-1-(2-methyl-2-phenylpropanoyl)pyrrolidin-3-yl]oxy}phenyl)-1-(pyridazin-4-yl)azetidine-3-carboxamide]	0.00807
O=C(Nc1ccc(O[C@@H]2CCN(C(=O)c3ccc(F)cc3F)C2)cc1)C1CN(c2ccnnc2)C1 [Example 467, N-(4-{[(3R)-1-(2,4-difluorobenzoyl)pyrrolidin-3-yl]oxy}phenyl)-1-(pyridazin-4-yl)azetidine-3-carboxamide]	0.0156
COCC(=O)N1CC[C@@H](Oc2ccc(NC(=O)C3CN(c4ccnnc4)C3)cc2)C1 [Example 468, N-(4-{[(3R)-1-(methoxyacetyl)pyrrolidin-3-yl]oxy}phenyl)-1-(pyridazin-4-yl)azetidine-3-carboxamide]	0.73
